From ChEMBL document CHEMBL4043065, “Simplifying nature: Towards the design of broad spectrum kinetoplastid inhibitors, inspired by acetogenins” (Bioorg Med Chem, 2017)

Columns and labels:
Trypanosoma brucei [1] = assay: Trypanocidal activity against Trypanosoma brucei 427 procyclic forms after 64 hrs by Alamar blue assay; format: functional; conditions: Trypanosoma brucei, 427, 64 h
Leishmania major = assay: Antileishmanial activity against Leishmania major MHOM/IL/80/Friedlin promastigotes after 72 hrs by Alamar blue assay; format: functional
Trypanosoma brucei [2] = assay: Trypanocidal activity against Trypanosoma brucei 427 blood stream forms after 64 hrs by Alamar blue assay; format: functional; conditions: Trypanosoma brucei, 427, 64 h
Trypanosoma cruzi = assay: Trypanocidal activity against Trypanosoma cruzi strain CL Brener epimastogoes after 64 hrs by Alamar blue assay; format: functional
HeLa [3] = assay: Cytotoxicity against human HeLa cells after 64 hrs by Alamar blue assay; format: cell-based
Vero = assay: Cytotoxicity against African green monkey Vero cells after 72 hrs by Alamar blue assay; format: cell-based; conditions: Chlorocebus sabaeus
Trypanosoma brucei [4] = assay: Trypanocidal activity against Trypanosoma brucei blood stream forms; format: functional
HeLa [5] = assay: Cytotoxicity against human HeLa cells; format: cell-based

Row | SMILES | EC50 (Trypanosoma brucei [1]) [µM] | EC50 (Leishmania major) [µM] | EC50 (Trypanosoma brucei [2]) [µM] | EC50 (Trypanosoma cruzi) [µM] | EC50 (HeLa [3]) [µM] | EC50 (Vero) [µM] | EC50 (Trypanosoma brucei [4]) [µM] | EC50 (HeLa [5]) [µM]
1 | Cn1cccc1C(=O)NCCCCCCOCCCC[C@H]1CCC[C@@H](Cn2cc([C@@H]3CCC[C@H](CCCCOCc4ccccc4)O3)nn2)O1 | 5 | 16.3 | 4.6 | > 500 | 177 |  |  | 
2 | COCCCCCCNC(=O)c1ccco1 | 124 | > 500 | 113 | > 500 | > 500 |  |  | 
3 | O=C(NCCCCCCOCCCC[C@H]1CCC[C@@H](Cn2cc([C@@H]3CCC[C@H](CCCCOCc4ccccc4)O3)nn2)O1)c1cocn1 | 9.9 | 21.6 | 8.4 | 18.3 | 21.9 | 26.6 |  | 
4 | OCCCCCCOCCCC[C@H]1CCC[C@@H](Cn2cc([C@@H]3CCC[C@H](CCCCOCc4ccccc4)O3)nn2)O1 | 3.8 | 12.4 | 3.5 | 27.3 | 21.6 |  |  | 
5 | C[C@H]1C=C(CCCCCCCCCC[C@H]2CCC[C@@H](c3cn(C[C@@H]4CCC[C@H](CCCCOCc5ccccc5)O4)nn3)O2)C(=O)O1 |  |  |  |  |  |  | 5.2 | 2.1
6 | CCCCCC[C@H]1CCC[C@@H](Cn2cc([C@@H]3CCC[C@H](CCCCO)O3)nn2)O1 |  |  |  |  |  |  | 1.8 | 7
7 | O=C(NCCCCCCOCCCC[C@H]1CCC[C@@H](Cn2cc([C@@H]3CCC[C@H](CCCCOCc4ccccc4)O3)nn2)O1)c1ccsc1 | 5 | 15.2 | 5.8 | > 500 | > 500 | > 500 |  | 
8 | Cc1cc(C(=O)NCCCCCCOCCCC[C@H]2CCC[C@@H](Cn3cc([C@@H]4CCC[C@H](CCCCOCc5ccccc5)O4)nn3)O2)oc1C | 3.9 | 72.3 | 4.6 | 135 | > 100 |  |  | 
9 | O=C(NCCCCCCOCCCC[C@H]1CCC[C@@H](Cn2cc([C@@H]3CCC[C@H](CCCCOCc4ccccc4)O3)nn2)O1)c1cccs1 | 4.8 | > 500 | 5.1 | > 500 | > 500 |  |  | 
10 | NCCCCCCOCCCC[C@H]1CCC[C@@H](Cn2cc([C@@H]3CCC[C@H](CCCCOCc4ccccc4)O3)nn2)O1 | 9.1 | 19.2 | 5.8 | 16.7 | 8.1 |  |  | 
11 | Cn1nccc1C(=O)NCCCCCCOCCCC[C@H]1CCC[C@@H](Cn2cc([C@@H]3CCC[C@H](CCCCOCc4ccccc4)O3)nn2)O1 | 5.5 | 28.7 | 6.1 | 81.8 | > 100 |  |  | 
12 | COCCCCCCNC(=O)c1ccnn1C | 47.4 | > 500 | 107 | > 500 | > 250 |  |  | 
13 | CCCCCC[C@H]1CCC[C@@H](Cn2cc([C@@H]3CCC[C@H](CCCCCCCCCCC4=C[C@H](C)OC4=O)O3)nn2)O1 |  |  |  |  |  |  | > 500 | > 1000
14 | c1ccc(COCCCCCCOCCCC[C@H]2CCC[C@@H](Cn3cc([C@@H]4CCC[C@H](CCCCOCc5ccccc5)O4)nn3)O2)cc1 | 29 | 411 | 4.3 | > 500 | > 20 |  |  | 
15 | Cc1ccoc1C(=O)NCCCCCCOCCCC[C@H]1CCC[C@@H](Cn2cc([C@@H]3CCC[C@H](CCCCOCc4ccccc4)O3)nn2)O1 | 2.5 | 67.8 | 4.7 | > 500 | 112 |  |  | 
16 | COCCCCCCNC(=O)c1ccc([N+](=O)[O-])o1 | 0.37 | 21 | 0.73 | 8 | 4.1 | 15.8 |  | 
17 | O=C(NCCCCCCOCCCC[C@H]1CCC[C@@H](Cn2cc([C@@H]3CCC[C@H](CCCCOCc4ccccc4)O3)nn2)O1)c1ccc[nH]1 | 4.6 | > 500 | 5 | > 500 | > 100 |  |  | 
18 | O=C(NCCCCCCOCCCC[C@H]1CCC[C@@H](Cn2cc([C@@H]3CCC[C@H](CCCCOCc4ccccc4)O3)nn2)O1)c1ccc(Cl)o1 | 3.8 | > 500 | 4.5 | > 500 | > 500 |  |  | 
19 | O=C(NCCCCCCOCCCC[C@H]1CCC[C@@H](Cn2cc([C@@H]3CCC[C@H](CCCCOCc4ccccc4)O3)nn2)O1)c1cscn1 | 5.8 | 21.8 | 5.7 | 12.6 | > 100 |  |  | 
20 | O=C(NCCCCCCOCCCC[C@H]1CCC[C@@H](Cn2cc([C@@H]3CCC[C@H](CCCCOCc4ccccc4)O3)nn2)O1)c1ccccc1 | 4.3 | > 500 | 4.4 | > 500 | > 250 |  |  | 
21 | O=C(NCCCCCCOCCCC[C@H]1CCC[C@@H](Cn2cc([C@@H]3CCC[C@H](CCCCOCc4ccccc4)O3)nn2)O1)c1ccoc1 | 5.4 | 15.2 | 3.9 | > 500 | > 500 | > 500 |  | 
22 | O=C(NCCCCCCOCCCC[C@H]1CCC[C@@H](Cn2cc([C@@H]3CCC[C@H](CCCCOCc4ccccc4)O3)nn2)O1)c1ccco1 | 5 | 7.8 | 3.8 | 8 | > 500 | > 500 |  | 
23 | OCCCCCCOCCCC[C@H]1CCC[C@@H](Cn2cc([C@@H]3CCC[C@H](CCCCO)O3)nn2)O1 | 56.3 | 123 | 37.7 | 230 | 6.5 to 69.3 |  |  | 
24 | Cc1nc(C(=O)NCCCCCCOCCCC[C@H]2CCC[C@@H](Cn3cc([C@@H]4CCC[C@H](CCCCOCc5ccccc5)O4)nn3)O2)co1 | 7.1 | 21.5 | 8 | 12.1 | 19.9 | 13.6 |  | 
25 | O=C(NCCCCCCOCCCC[C@H]1CCC[C@@H](Cn2cc([C@@H]3CCC[C@H](CCCCOCc4ccccc4)O3)nn2)O1)c1ccc([N+](=O)[O-])o1 | 0.1 | 11.2 | 0.037 | 3.1 | 0.38 | 4.5 |  | 
26 | Cc1ccc(C(=O)NCCCCCCOCCCC[C@H]2CCC[C@@H](Cn3cc([C@@H]4CCC[C@H](CCCCOCc5ccccc5)O4)nn3)O2)o1 | 3.1 | 16.1 | 4.7 to 4.9 | 187 | 42.7 |  |  | 
